Test results: article PMC5913254, “A novel in vitro metric predicts in vivo efficacy of inhaled silver-based antimicrobials in a murine Pseudomonas aeruginosa pneumonia model” (Scientific Reports, 2018)
“And” between values parts separate entries of the source, which are not always exact repeats. Equal values may be shown once.

Key:
[1] = tested on: P. aeruginosa strain PA M57-15; assay: MIC and MBC determination, standard CLSI protocol with minor modifications; type: cell-based, Pseudomonas aeruginosa
Experimental: Pseudomonas aeruginosa isolate PA M57-15 was generously donated by Thomas Ferkol, M.D. (Washington University, St. Louis, MO). PA M57-15 was struck from frozen glycerol stocks on to tryptic soy agar plates (Remel) and incubated overnight at 37 °C in a warm room until individual colonies formed. A single colony was inoculated in 10 mL Mueller-Hinton (MH) broth, grown in a shaking incubator (37 °C, 200 rpm) to log phase (OD650 = 0.4), and utilized for experiments after appropriate dilutions. PA M57-15 bacterial suspension at OD650 = 0.4 corresponds to 2–3 × 10^8 CFU/mL, as verified by repeated serial dilution and plating.
The MIC and MBC determinations of the various SCCs and the Ag-PPE-SCK NPs were performed using a standard CLSI protocol with minor modifications. A mucoid clinical isolate of Pseudomonas aeruginosa, PA M57-15, from a cystic fibrosis patient was utilized, because we have previously studied this strain in murine models of P. aeruginosa lung infection[21],[29],[30]. PA M57-15 grown to log phase as previously described was diluted to a density of 10^6 CFU/mL in MH and added 1:1 in a 96-well plate with different concentrations of SCCs dissolved in 95:5 (v:v) DH2O:DMSO solution or the Ag-PPE-SCKs suspended in DH2O. The final SCC concentrations tested were 0.25, 0.5, 0.75, 1, 1.5, and 2 μg/mL and were increased in two-fold increments from 2 μg/mL to 32 μg/mL. The final DMSO concentrations in the wells was 2.5% (v/v) and had no impact on bacterial growth, as determined by growth in the positive control wells. […] Contents of these clear wells were streaked on agar plates and incubated for an additional 24 hours at 37 °C. […] Three technical replicates were employed for each experiment and a total of three biological replicates were performed on separate days (3 technical replicates x 3 biological replicates = 9 total replicates) to account for day-to-day variations in media, bacterial growth, compound dilutions, as well as other experimental conditions. The MIC and MBC values that were identical for at least two readings out of the three are reported.

[2] = tested on: immortalized human bronchial epithelial cells (16HBE); assay: alamarBlue cytotoxicity assay against 16HBE cells (in vitro LD50); type: cell-based; details: 24 h
Experimental: (§1) 16HBEs (16HBE14o-), generously provided by Dr. D. Gruenert (University of California, San Francisco, CA) are a human bronchial epithelial cell line transformed with SV40 large T-antigen using the replication-defective pSVori plasmid. 16HBEs were used as a model to determine the relative toxicities of the SCCs to airway cells. Cells between passages 20 to 35 were cultured in Minimum Essential Medium with Earle’s Balanced Salts (Sigma Aldrich) and non-essential amino acids supplemented with penicillin-streptomycin (1%), L-glutamine (1%), and foetal bovine serum (10%). Additionally, primary human dermal fibroblasts (HDFs) were also utilized for in vitro toxicity studies. HDFs at passage 4 were generously donated by Carol Tamminga, M.D. (University of Texas Southwestern Medical Center, Dallas, TX). HDFs were cultured in Dulbecco’s Modified Eagle Medium (Sigma Aldrich) supplemented with penicillin-streptomycin (1%), L-glutamine (1%), and foetal bovine serum (10%) and were utilized between passage 7 to 14 for in vitro toxicity studies. 16HBE and HDF cultures were assessed for bacterial contamination visually, while mycoplasma contamination was assessed both visually and through a PCR-based Universal Mycoplasma Detection Kit assay (ATCC® 30-1012K^TM).
(§2) 16HBEs and HDFs grown to confluency (90–95%) as described above were sub-cultured, re-suspended in the appropriate medium, and seeded in wells of clear 96-well plate(s) at either 25,000 cells/well (16HBEs) or 15,000 cells/well (HDFs) with 100 µL of feeding media and incubated over 24 hours at 37 °C, 5% CO2, and 100% RH. The cells were then washed once with sterile phosphate buffered saline (PBS, pH = 7.4) and 100 µL of SCCs or the Ag-PPE-SCKs at various concentrations in OPTI-MEM® (Invitrogen) with 3.3% (v/v) DMSO, or without for the Ag-PPE-SCKs, was added to the cells. Next, 10 µL of alamarBlue® (Invitrogen) was added to each well and the plates were re-incubated for 24 h. Finally, the plates were measured for optical density at 570 and 600 nm with a spectrophotometer (POLARstar Omega, BMG Labtech or Cytation 5, BioTek). Untreated cells and media only (with alamarBlue®) were used as controls. […] The relative viabilities of the cells were determined as per the manufacturer’s instructions and using GraphPad Prism® software to generate a non-linear curve fit and interpolate the in vitro LD50 for each SCC. This assay was performed with three technical replicates for each SCC and Ag-PPE-SCK dose and biological replicates were performed in quadruplicate on separate days (3 technical replicates × 4 biological replicates = 12 total replicates). The DEM for each SCC was determined as the ratio of the molar LD50 and MBC concentrations (LD50/MBC).

[3] = tested on: primary human dermal fibroblasts (HDFs); assay: alamarBlue cytotoxicity assay against HDFs (in vitro LD50); type: cell-based; details: 24 h
Experimental: as §1, §2

[4] = tested on: 16HBE cells vs. PA M57-15; assay: Drug efficacy metric (DEM = LD50/MBC) using 16HBEs; set-up: species or system human; details: 16HBE-based DEM; one-way ANOVA with Tukey's test or unpaired t-test
Experimental: as §2, with “This assay was performed with three technical replicates for each SCC and Ag-PPE-SCK dose and biological replicates were performed in quadruplicate on separate days (3 technical replicates × 4 biological replicates = 12 total replicates).” left out

[5] = tested on: Pseudomonas aeruginosa (PA M57-15); assay: Murine P. aeruginosa acute lung infection model, nebulized treatment; type: in vivo, mouse; details: for survival: 25 µmol Ag+ per dose nebulized, 5 doses, sham 9.1%; for survival / survival compared with sham treatment: 90:10 DH2O:DMSO, head-to-head of four SCCs; for clinical illness score (signs of illness): 25 µmol per dose nebulized with DMSO, SCC1 and SCC22: at 24 hours following infection, scorers not blinded; for survival compared with sham treatment: 25 µmol per dose nebulized
Experimental: Weight-matched male C57BL/6 J mice aged 6–8 weeks were used for all acute lung infection studies, which were approved by the University of Texas Southwestern Medical Center Institutional Animal Care and Use Committee (IACUC). All experiments were performed in accordance with relevant guidelines and regulations. Animals were housed in a barrier facility under pathogen-free conditions until they were inoculated with bacteria. The previously described clinical mucoid strain of Pseudomonas aeruginosa (PA M57-15) grown to mid-log phase (OD650 = 0.4) in Luria broth (LB) was used for all pulmonary infection experiments. The density of the bacterial culture (CFU/mL) was determined using serial dilution and plating for each experiment.
Mice were anesthetized by intraperitoneal administration of a ketamine (60 mg/kg) and xylazine (8 mg/kg) cocktail, intranasally inoculated using 75 µL of the bacterial inoculum (~1 × 10^6 CFU per mouse), and assigned randomly into treatment groups. Treatment was administered at 1-hour post-inoculation and again every 12 hours thereafter up to a 5th dose at 49 hours via nebulization of 5 mL of SCC solutions (containing 25 µmol total Ag^+ cation per dose for each SCC) or sham treatment. For the head-to-head comparison of unencapsulated SCC1, SCC22, SCC23, and SCC28, all SCCs were dissolved in a 90:10 (v/v) mixture of DH2O and DMSO; whereas, the sham treatment consisted of 90:10 DH2O: DMSO, but with dilute phosphate buffer (1 mM Na2HPO4, 0.2 mM KH2PO4) incorporated to provide tonicity for nebulization. For the dose-response studies with unencapsulated SCC1 and SCC22, 5 mL of SCCs dissolved in DH2O alone or 90:10 (v/v) mixture of DH2O and DMSO was nebulized to provide a total dose of 25, 50, or 100 µmol Ag^+ cation per dose for each SCC. Nebulization of the SCCs was achieved using a previously described experimental setup comprising of an Aeroneb Lab apparatus connected to a multi-dosing chamber. Throughout each study, the mice were monitored constantly and times of death were recorded. Every 24 hours, the mice were weighed and assigned cumulative clinical illness scores (0–6) based on their resting posture (0–2), condition of their fur (0–1), and overall activity level (0–3), with higher scores indicating more severe illness. The investigators assigning the scores were not blinded to the treatment group, which is a limitation of this study. The survival studies were all performed in duplicate with results pooled.
In vivo efficacy testing of the silver loaded, polyphosphoester, shell-crosslinked, knedel-like nanoparticles (Ag-PPE-SCKs) was carried out in a similar manner as with the SCCs. Ag-PPE-SCKs were suspended in 5 mL DH2O to a concentration of ~5 mM silver, as previously determined by mass spectrometry, and empty PPE-SCKs were suspended corresponding to the same mass of polymer. SCC1, a comparator treatment, was similarly dissolved to 5 mM in 5 mL DH2O, and sham consisted of the DH2O:phosphate buffer solution used in the other studies. The infection model was carried out as before; however, the Ag-PPE-SCKs and PPE-SCKs were dosed at 1 and 25 hours post-infection with the nanoparticles and given sham treatment at 13, 37, and 49 hours. SCC1 and sham treatment groups were dosed at all five time points. Survival studies were performed twice and pooled, though SCC1 was only used in one of the survival studies.

[6] = tested on: Pseudomonas aeruginosa (PA M57-15); assay: Histology of lungs of infected, treated mice; type: in vivo, mouse; details: lungs at 25 hours after three treatments; for aggregate histological score: inflammation, consolidation, congestion/haemorrhage each 0 to +3, sham +6
Experimental: Male C57BL/6 J mice were infected with PA M57-15 and treated with the four SCCs or vehicle as described above. At 25 hours, following three treatments, the mice were humanely euthanized by cervical dislocation following anesthetization by a ketamine/xylazine cocktail. Lungs of the mice were harvested aseptically, the lung sections fixed in 10% formalin for a minimum of 12 hours, and embedded in paraffin using an automated rapid tissue processor (Peloris-Leica Microsystems Inc., Buffalo Grove, IL). Two 5-micron thick sections were obtained from each paraffin block and stained with Haematoxylin/Eosin on an automated stainer (Symphony, Ventana-Roche, Tucson, AZ). Sections were evaluated by light microscopy (Nikon Eclipse-Ni, Nikon Instruments, Inc., Americas), scored using a semi-quantitative scale from 0 (negative), +1 (mild), +2 (moderate), and +3 (severe) for the following parameters: inflammation, consolidation, congestion/haemorrhage, and an aggregate score was calculated for each group. The presence of bacterial colonies if any was also noted. A pathologist, who was blinded to the treatment received by the mice, performed the examination and analysis of tissues. A total of two mice were used in each treatment group.

[7] = tested on: primary tracheal epithelial cells grown at air-liquid interface; set-up: method as in PMID 20005242; details: higher than 16HBE; cited from earlier work
[8] = set-up: method as in PMID 23930200; details: radiolabelled Ag+; cited from earlier work
[9] = set-up: method as in PMID 20449175; details: cited from earlier work
[10] = 100 µmol, DMSO-free formulation

SMILES | MBC ([1]; PA M57-15) | MIC ([1]; PA M57-15) | MBC ([1]; PA M57-15, molar basis) | MIC ([1]; PA M57-15, molar basis) | LD50 [2] | LD50 [3] | DEM compared between formulations [4] | survival [5] | clinical illness score (signs of illness) [5] | survival advantage compared with sham treatment ([5]; 25 µmol, DMSO-free formulation) | survival advantage compared with sham treatment ([5]; 25 µmol, with DMSO) | survival advantage compared with sham treatment ([5]; 50 µmol, DMSO-free formulation) | survival advantage compared with sham treatment [5, 10] | survival advantage compared with sham treatment ([5]; 100 µmol, with DMSO) | bacterial colonies in lung tissue [6] | aggregate histological score [6] | survival compared with sham treatment [5] | also measured
CC(=O)[O][Ag][c]1n(C)c2c(c(=O)n(C)c(=O)n2C)[n+]1C [SCC1] | 1.5 µg/mL | 0.75 µg/mL | 4.0 µM and 4 µM | 2.0 µM and 2 µM | 297 µM | 25.8 µM | significantly higher DEMs than SCC23 and SCC28 | 25% | significantly lower signs of illness | 58% | 42% | 64% | 73% | 17% | complete absence of bacterial colonies | +4 |  | survival advantage compared with sham treatment ([5]; ~5 mM silver in 5 mL DH2O nebulized, Ag-PPE-SCKs dosed at 1 and 25 h, SCC1 at all five time points): 50%; LD50 of primary cells relative to that of 16HBE [7]: about 2 log10; accumulation in the liver [8]: minimal accumulation
CC(=O)[O][Ag][c]1n(CCCO)c(Cl)c(Cl)[n+]1C [SCC22] | 1.0 µg/mL | 0.75 µg/mL | 2.7 µM | 2.0 µM and 2 µM | 224 µM | 22.7 µM | significantly higher DEMs than SCC23 and SCC28 | 42% | significantly lower signs of illness | 25% | 58% | 67% | 67% | did not yield any survival advantage | No bacterial colonies were identified | +3 |  | survival advantage compared with sham treatment ([5]; 50 µmol, with DMSO): 50%; water solubility [9]: up to 110 g/L
CC(=O)[O][Ag][c]1n(Cc2ccc3ccccc3c2)c(Cl)c(Cl)[n+]1Cc1ccc2ccccc2c1 [SCC23] | 1.0 µg/mL | 0.50 µg/mL | 1.7 µM | 0.86 µM | 14.7 µM | 14.2 µM |  |  | appeared the most infirm at each time-point |  |  |  |  |  | bacterial colonies were not identified | +4 | significantly lower survival | 
CCCCCCn1c(Cl)c(Cl)[n+](Cc2ccc3ccccc3c2)[c]1[Ag][O]C(C)=O [SCC28] | 1.0 µg/mL | 0.50 µg/mL | 1.9 µM | 0.95 µM | 58.1 µM | 9.8 µM |  |  |  |  |  |  |  |  | bacterial colonies were not identified | 4 | significantly lower survival | 
